According to ChEMBL document CHEMBL1909294, “Translating clinical findings into knowledge in drug safety evaluation--drug induced liver injury prediction system (DILIps)” (PLoS Comput Biol, 2011):

Tests used:
Hepatotoxicity [1] = system: Hepatotoxicity;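 on HepSE Combined Scores: combined hepatic side effect score as listed in the training data of the Drug Induced Liver Injury Prediction System (DILIps)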;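 on HepSE bilirubinemia: bilirubinemia hepatic side effect score drawn from the DILIps training data, a prediction system for drug-induced liver injury; call rule not given here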;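 on HepSE cholecystitis: Cholecystitis-related hepatic side effect score drawn from the DILIps (drug-induced liver injury prediction) training data set; call rule not given here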;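 on HepSE elevated liver function tests: hepatic side effect score for raised liver function tests, as recorded in the DILIps training set used for predicting drug-induced liver injury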;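 on HepSE liver fatty: hepatic side effect score for fatty liver, taken from the DILIps training set for predicting drug-induced liver injury; call rule not given here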;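 on HepSE liver function tests abnormal: hepatic side effect score taken from the DILIps (drug-induced liver injury prediction system) training data, here covering abnormal liver function test findings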
Hepatotoxicity [2] = system: Hepatotoxicity; remark: listed apart in the source;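 on HepSE Combined Scores: combined hepatic side effect score as listed in the training data of the Drug Induced Liver Injury Prediction System (DILIps)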;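 on HepSE bilirubinemia: bilirubinemia hepatic side effect score drawn from the DILIps training data, a prediction system for drug-induced liver injury; call rule not given here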;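 on HepSE cholecystitis: Cholecystitis-related hepatic side effect score drawn from the DILIps (drug-induced liver injury prediction) training data set; call rule not given here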;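 on HepSE elevated liver function tests: hepatic side effect score for raised liver function tests, as recorded in the DILIps training set used for predicting drug-induced liver injury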;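 on HepSE liver fatty: hepatic side effect score for fatty liver, taken from the DILIps training set for predicting drug-induced liver injury; call rule not given here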;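 on HepSE liver function tests abnormal: hepatic side effect score taken from the DILIps (drug-induced liver injury prediction system) training data, here covering abnormal liver function test findings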
Hepatotoxicity [3] = system: Hepatotoxicity; remark: listed apart in the source;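 on HepSE Combined Scores: combined hepatic side effect score as listed in the training data of the Drug Induced Liver Injury Prediction System (DILIps)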;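 on HepSE bilirubinemia: bilirubinemia hepatic side effect score drawn from the DILIps training data, a prediction system for drug-induced liver injury; call rule not given here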;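 on HepSE cholecystitis: Cholecystitis-related hepatic side effect score drawn from the DILIps (drug-induced liver injury prediction) training data set; call rule not given here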;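 on HepSE elevated liver function tests: hepatic side effect score for raised liver function tests, as recorded in the DILIps training set used for predicting drug-induced liver injury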;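 on HepSE liver fatty: hepatic side effect score for fatty liver, taken from the DILIps training set for predicting drug-induced liver injury; call rule not given here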;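 on HepSE liver function tests abnormal: hepatic side effect score taken from the DILIps (drug-induced liver injury prediction system) training data, here covering abnormal liver function test findings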
Hepatotoxicity [4] = system: Hepatotoxicity; remark: listed apart in the source;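 on HepSE Combined Scores: combined hepatic side effect score as listed in the training data of the Drug Induced Liver Injury Prediction System (DILIps)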;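 on HepSE bilirubinemia: bilirubinemia hepatic side effect score drawn from the DILIps training data, a prediction system for drug-induced liver injury; call rule not given here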;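 on HepSE elevated liver function tests: hepatic side effect score for raised liver function tests, as recorded in the DILIps training set used for predicting drug-induced liver injury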;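 on HepSE liver fatty: hepatic side effect score for fatty liver, taken from the DILIps training set for predicting drug-induced liver injury; call rule not given here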;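 on HepSE liver function tests abnormal: hepatic side effect score taken from the DILIps (drug-induced liver injury prediction system) training data, here covering abnormal liver function test findings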
Hepatotoxicity [5] = system: Hepatotoxicity; remark: listed apart in the source
Hepatotoxicity [6] = system: Hepatotoxicity; remark: listed apart in the source
Hepatotoxicity [7] = system: Hepatotoxicity; remark: listed apart in the source
Hepatotoxicity [8] = system: Hepatotoxicity; remark: listed apart in the source
Hepatotoxicity [9] = system: Hepatotoxicity; remark: listed apart in the source
Hepatotoxicity [10] = system: Hepatotoxicity; remark: listed apart in the source
Hepatotoxicity [11] = system: Hepatotoxicity; remark: listed apart in the source
Hepatotoxicity [12] = system: Hepatotoxicity; remark: listed apart in the source
Hepatotoxicity [13] = system: Hepatotoxicity; remark: listed apart in the source
Hepatotoxicity [14] = system: Hepatotoxicity; remark: listed apart in the source

Row | SMILES | HepSE_liver function tests abnormal (Hepatotoxicity [1]) | HepSE_elevated liver function tests (Hepatotoxicity [2]) | HepSE_bilirubinemia (Hepatotoxicity [3]) | HepSE_Combined Scores (Hepatotoxicity [4]) | HepSE_liver fatty (Hepatotoxicity [5]) | HepSE_cholecystitis (Hepatotoxicity [6]) | HepSE_hepatic necrosis (Hepatotoxicity [7]) | HepSE_hepatitis (Hepatotoxicity [8]) | HepSE_liver disease (Hepatotoxicity [9]) | HepSE_jaundice (Hepatotoxicity [10]) | HepSE_hepatic failure (Hepatotoxicity [11]) | HepSE_cholelithiasis (Hepatotoxicity [12]) | HepSE_hepatomegaly (Hepatotoxicity [13]) | HepSE_cirrhosis (Hepatotoxicity [14])
1 | CNCC[C@@H](Oc1ccccc1C)c1ccccc1 [ATOMOXETINE] | 1 | 0 | 0 | 1 | 0 | 0 | 0 | 0 | 0 | 0 | 0 | 0 | 0 | 0
2 | CCN(CC)CCOC(=O)c1ccc(N)cc1 [PROCAINE] | 0 | 0 | 0 | 0 | 0 | 0 | 0 | 0 | 0 | 0 | 0 | 0 | 0 | 0
3 | CC(C)OC(=O)CCC/C=C\C[C@@H]1[C@@H](/C=C/[C@@H](O)COc2cccc(C(F)(F)F)c2)[C@H](O)C[C@@H]1O [TRAVOPROST] | 0 | 0 | 0 | 0 | 0 | 0 | 0 | 0 | 0 | 0 | 0 | 0 | 0 | 0
4 | O=C1CN=C(c2ccccn2)c2cc(Br)ccc2N1 [BROMAZEPAM] | 0 | 0 | 0 | 0 | 0 | 0 | 0 | 0 | 0 | 0 | 0 | 0 | 0 | 0
5 | CC(C)[N+](C)(CCOC(=O)C1c2ccccc2Oc2ccccc21)C(C)C [PROPANTHELINE] | 0 | 0 | 0 | 0 | 0 | 0 | 0 | 0 | 0 | 0 | 0 | 0 | 0 | 0
6 | Nc1nc2c(c(=O)[nH]1)N(C=O)C(CNc1ccc(C(=O)N[C@@H](CCC(=O)O)C(=O)O)cc1)CN2 (some centres not stated) [LEUCOVORIN] | 0 | 0 | 0 | 0 | 0 | 0 | 0 | 0 | 0 | 0 | 0 | 0 | 0 | 0
7 | OCCN1C[C@H](O)[C@@H](O)[C@H](O)[C@H]1CO [MIGLITOL] | 0 | 0 | 0 | 0 | 0 | 0 | 0 | 0 | 0 | 0 | 0 | 0 | 0 | 0
8 | c1ccc2c(c1)CCCC2C1=NCCN1 (configuration not stated) [TETRAHYDROZOLINE] | 0 | 0 | 0 | 0 | 0 | 0 | 0 | 0 | 0 | 0 | 0 | 0 | 0 | 0
9 | Nc1cc(Cl)c(N=C2NCCN2)c(Cl)c1 [APRACLONIDINE] | 0 | 0 | 0 | 0 | 0 | 0 | 0 | 0 | 0 | 0 | 0 | 0 | 0 | 0
10 | COC(=O)CCC(=O)CN [METHYL AMINOLEVULINATE] | 0 | 0 | 0 | 0 | 0 | 0 | 0 | 0 | 0 | 0 | 0 | 0 | 0 | 0
11 | C[N+](C)(C)CC(O)CC(=O)[O-] (configuration not stated) [CARNITINE] | 0 | 0 | 0 | 0 | 0 | 0 | 0 | 0 | 0 | 0 | 0 | 0 | 0 | 0
12 | C[C@]12CC[C@@H]3c4ccc(O)cc4C[C@@H](CCCCCCCCC[S+]([O-])CCCC(F)(F)C(F)(F)F)[C@H]3[C@@H]1CC[C@@H]2O (some centres not stated) [FULVESTRANT] | 0 | 0 | 0 | 0 | 0 | 0 | 0 | 0 | 0 | 0 | 0 | 0 | 0 | 0
13 | CN[C@H](CC(C)C)C(=O)N[C@H]1C(=O)N[C@@H](CC(N)=O)C(=O)N[C@H]2C(=O)N[C@H]3C(=O)N[C@H](C(=O)N[C@H](C(=O)O)c4cc(O)cc(O)c4-c4cc3ccc4O)[C@H](O)c3ccc(c(Cl)c3)Oc3cc2cc(c3O[C@@H]2O[C@H](CO)[C@@H](O)[C@H](O)[C@H]2O[C@H]2C[C@](C)(N)[C@H](O)[C@H](C)O2)Oc2ccc(cc2Cl)[C@H]1O [VANCOMYCIN] | 0 | 0 | 0 | 0 | 0 | 0 | 0 | 0 | 0 | 0 | 0 | 0 | 0 | 0
